Results from US6638938B1, “Method for preventing tissue injury from hypoxia” (Cell Therapeutics, Inc., priority 1993, dated 2003).

Tests used:
[1] = serum level of Lisofylline in hemorrhaged mice; format: in vivo; conditions: male, mouse, intravenous, hemorrhaged Balb/C mice, 5 minutes after 100 mg/kg Lisofylline given with resuscitation blood, read-out: serum levels of Lisofylline
Procedure: (§1) This example illustrates a study of Lisofylline in a murine hemorrhage and resuscitation model. Male Balb/C mice, 8-12 weeks of age, were obtained from Harlan-Sprague Dawley (Indianapolis, Ind.). The animals were kept on a 12 hour light/dark cycle with free access to food and water. With this model, 30% of the calculated blood volume (approximately 0.55 ml for a 20 gram mouse) was withdrawn from a methoxyflurane anesthetized mouse by cardiac puncture over a 60-second period. The blood was collected into a heparinized syringe (5 units heparin), kept at 37° C. for one hour, then reinfused into the mouse through a retroorbital plexus injection. Using this method, one is able to resuscitate all hemorrhaged mice without complication. The total period of methoxyflurane anesthesia is less than 2 minutes in all cases. The mortality rate with this hemorrhage protocol is approximately 12%, with all deaths occurring over the 24 hours post hemorrhage, and most deaths occurring within the one hour post hemorrhage.
Mice were treated with 100 mg/kg Lisofylline in 0.2 ml PBS and given initially i.v., by retroorbital injection, then i.p. every 8 hours for a total of 9 doses. In hemorrhaged mice, the Lisofylline in PBS was added to the shed blood, and then given retroorbitally with the blood during the resuscitation phase. […]

[2] = tested on: lungs of mice subjected to hemorrhage and resuscitation; test: lung histology in murine hemorrhage and resuscitation model; format: in vivo, Balb/C mice
Procedure: as §1
Mice were treated with 100 mg/kg Lisofylline in 0.2 ml PBS and given initially i.v., by retroorbital injection, then i.p. every 8 hours for a total of 9 doses. In hemorrhaged mice, the Lisofylline in PBS was added to the shed blood, and then given retroorbitally with the blood during the resuscitation phase. In hemorrhaged Balb/C mice (n=3), sacrificed by exsanguination 5 minutes after receiving Lisofylline with the blood used for resuscitation, serum levels of Lisofylline were 44±6 μg/ml.
At 3 days following hemorrhage and resuscitation or the initiation of Lisofylline treatment, mice were sacrificed and the pulmonary circulation flushed with chilled PBS injected into the right ventricle, as described above. The left lower lobe of the lungs was placed into formalin. Hematoxylin and eosin sections of the lungs were prepared, and examined in a blinded fashion by a pulmonary pathologist who was unaware of the group to which the individual animal belonged. Lungs from normal, unmanipulated Balb/C mice also were included as additional controls. The histopathologic findings were scored on a 0 to 3 scale (with 0 being normal and 3 being the most severe change) for the following variables: a) neutrophil infiltration into the pulmonary interstitium; b) intraaveolar hemorrhage; and c) interstitial edema.
Groups of 6 to 8 mice were used for each condition. For each experimental condition, the whole group of animals was prepared and then studied at the same time. Cells, mRNA, BAL supernatants, and plasma were obtained individually from eachanimal, and then were analyzed individually before calculating group data. Data are presented as mean±standard error of the mean (SEM) for each experimental group. One-way analysis of variance and the Student Newman Keuls test were used for comparisons between normal, nominal treated, hemorrhage/treated and hemorrhage data groups. A P value of less than 0.05 was considered significant.

human neutrophils = test: neutrophil chemotaxis in Boyden chambers to zymosan activated serum; format: cell-based
Source text: Human recombinant interleukin-1α (IL-1) was obtained from Hoffmann-LaRoche, Inc. (Nutley, N.J.), frozen inaliquots and thawed daily for use. Ketamine hydrochloride was obtained from Parke-Davis (Morris Plains, N.J.), xylazine from Haver (New York, N.J.), ^125I labeled bovine serum albumin (BSA) from ICN Radiochemicals (Irvine, Calif.), and heparin sodium from Elkins-Sinn, Inc. (Cherry Hill, N.J.). All other reagents were purchased from Sigma Chemical Co. (St. Louis, Mo.). Neutrophils were purified from human blood by well described methods. Venous blood was anticoagulated with heparin and the cellular elements were separated from platelet-rich plasma by centrifugation. Cell pellets were resuspended in platelet-poor plasma and diluted 1:4 with 6% dextran (Pharmacia Fine Chemicals, Piscataway, N.J.) in saline. Red cells were separated from leukocytes by sedimentation. Leukocyte-rich supernatants were then aspirated, underlain with Ficoll-Hypaque (Pharmacia Fine Chemicals), and centrifuged at 275×g to separate neutrophils and monocytes. […]
Each sample was run in triplicate. Unstimulated locomotion was measured using control neutrophils in Hank's Balanced Salt Solution (HBSS) in the top chamber and HBSS in the bottom chamber. Stimulated locomotion was measured using twice-washed neutrophils in HBSS in the top chamber with and without Lisofylline and zymosan-activated serum (ZAS) in the bottom chamber. […] Indices of unstimulated or stimulated locomotion were expressed as the number of neutrophils migrating through the filter in 5 random, high-power objective fields (HPF).
Neutrophil chemotactic activity was determined by Boyden chamber assay and quantitated as the number of migrating PMN/5HPF using zymosan-activated serum (ZAS) as the chemoattractant (Repine et al., J. Reticuloendo. Soc. 24:217, 1978). Neutrophil adherence was assessed by quantitating the percentage of neutrophils adhering to nylon fibers following addition of phorbol myristate acetate (PMA 10-^6M, Sigma) (Rasp et al., J. Reticuloendo. Soc. 25:101, 1979). […]

[3] = tested on: neutrophils in lung lavages; test: lung lavage neutrophils of intact rats given IL-1 intratracheally; format: in vivo, Sprague-Dawley rats
Procedure: Interleukin-1α (IL-1) and Lisofylline administration in Male Sprague-Dawley rats weighing 300-350 g (Sasco, Omaha, Neb.) were fed a normal diet and acclimated to altitude (Denver, Colo.) for at least 14 days before study. Rats were anesthetized with ketamine (90 mg/kg) and zylazine (7 mg/kg) intraperitoneally and then supplemented as needed with ketamine and zylazine and kept on a warming blanket. The trachea was cannulated with an indwelling 15 gauge stub adaptor tube. After 5 ventilated breaths (Harvard Apparatus Co., Millis, Mass.), IL-1 (0.5 ml, 50 ng) in sterile, endotoxin-free saline, was rapidly instilled intratracheally with a syringe, followed by another 5 ventilated breaths. Sham treated rats received identical anesthesia and surgery but were injected only with sterile saline intratracheally. […]
Saline (3.0 ml×2) was slowly injected intratracheally and then withdrawn. Recovered lavage fluid was quantitated and centrifuged for 5 min and the cell pellet resuspended in 1.0 ml of lavage. Total cells were counted in a hemocytometer and a cytospin preparation (Shandon Southern Products Ltd, Cheshire, England) Wright-stained and examined to determine the percentages of neutrophils.

[4] = hemorrhaged/resuscitated mice, 100 mg/kg every 8 hours, 9 doses, 3 days, not significantly different from normal

With `C[C@@H](O)CCCCn1c(=O)c2c(ncn2C)n(C)c1=O` [Lisofylline, 1-R-(5-hydroxyhexyl)-3,7-dimethylxanthine] the concentration at 5 min [1] was 44000 ± 6000 ng/mL, the “number of neutrophils in the pulmonary interstitium” value ([2]; hemorrhaged mice treated, versus hemorrhaged/resuscitated untreated, 3 days) was “significantly decreased” and the “degree of interstitial edema” value [2, 4] was “minimal”. The “degree of intraaveolar hemorrhage” value [2, 4] was “minimal”, the “number of neutrophils in the lungs” value ([2]; normal mice treated, versus normal untreated) was “significantly increased” and the lung injury ([2]; rodent model of hemorrhage and reperfusion) was “completely prevented”. The “Neutrophil Chemotaxis in Boyden Chambers in vitro” value (human neutrophils; Neutrophils + ZAS + Lisofylline 1 μM) was 15.0 (2)δ PMN/5HPF, the “Neutrophil Chemotaxis in Boyden Chambers in vitro” value (human neutrophils; Neutrophils + ZAS + Lisofylline 50 μM) was 11.1 (2)δ PMN/5HPF and the “stimulated human neutrophil chemotaxis” value (human neutrophils; ZAS as chemoattractant, in vitro) was “reduced”. For the same molecule, the “Total Lavage PMNs” value ([3]; IL-1 + Lisofylline (100 μg/kg)) was 3.64 ± 0.84 (9)δ number × 10^6 and the “Total Lavage PMNs” value ([3]; Sham + Lisofylline (100 μg/kg)) was 0.42 ± 0.14 (8)δ number × 10^6.
